Eleven molecules from ChEMBL document CHEMBL3045052, “Effect of the lipophilic parameter (log P) on the anti-parasitic activity of imidazo[1,2-a]pyridine derivatives” (Med Chem Res, 2012) can be followed below.

Values after ≈ are worked out from the molar mass of the structure shown.

The nature of data set [1]: Partition coefficient, log P of compound at 1:1 1-octanol/water volume ratio by spectrophotometer. The class given is physicochemical.
The subject of data set [2] is Trichomonas vaginalis. Description: Antiparasitic activity against Trichomonas vaginalis GT3 after 24 hr by Alamar blue assay. The note with it: GT3, 24 h. The class given is functional.
Data set [3] concerns Trichomonas vaginalis. Description: Antiparasitic activity against Trichomonas vaginalis GT3 after 48 hr by Alamar blue assay. The class given is functional, organism-based. Conditions: GT3, 48 h.
The nature of data set [4]: Partition coefficient, log P of compound at 1:2 1-octanol/water volume ratio by spectrophotometer. The class given is physicochemical.
The nature of data set [5]: Partition coefficient, log P of compound at 2:1 1-octanol/water volume ratio by spectrophotometer. The class given is physicochemical.

The term logP denotes the decadic logarithm of the partition coefficient of the neutral form, usually between octanol and water. By MIC is commonly meant the least concentration at which growth counts as inhibited. A higher MIC goes with a need for much substance. In general, EC50 refers to the concentration giving half of the maximal effect. Read a high EC50 as a need for much substance. As for `O=[N+]([O-])c1cnc2ccccn12`, the logP in data set [1] was found to be 0.938; in data set [4], 0.96; in data set [5], 0.922. Moreover, the minimum inhibitory concentration (MIC) in data set [2] came to 3.01 µM (≈ 0.491 µg/mL); in data set [3], 3.07 µM (≈ 0.501 µg/mL). For the same molecule, it took 2.45 µM to reach a half-maximal effect in data set [3] (EC50).

`Cc1ncc([N+](=O)[O-])n1CCO` [METRONIDAZOLE]: the logP in data set [1] was 0.12; in data set [4], 0.11; in data set [5], 0.115. For the same molecule, the minimal inhibitory concentration (MIC) in data set [2] and in data set [3] was 2.92 µM (≈ 0.5 µg/mL) in each case. The molecule also registered an EC50 in data set [3] of 1.2 µM.

As for `Cc1cccc2nc(C(N)=O)c([N+](=O)[O-])n12`, the lipophilicity (logP) in data set [1] worked out at 0.67; in data set [4], 0.69; in data set [5] it was 0.695. In addition, the MIC in data set [2] and in data set [3] was 9.09 µM (≈ 2 µg/mL) each time. The molecule also had a concentration for a half-maximal effect (EC50) in data set [3] of 14.6 µM.

Consider `Cc1cccc2nc(C#N)c([N+](=O)[O-])n12`, for which the log partition coefficient (logP) in data set [1] was 1.19; in data set [4], 1.12; in data set [5] it was 1.08. Moreover, the MIC came out at 4.95 µM (≈ 1 µg/mL) in data set [2] and 2.48 µM (≈ 0.501 µg/mL) in data set [3]. For the same molecule, the EC50 in data set [3] worked out at 12.1 µM.

Consider `CCOC(=O)c1nc2cccc(C)n2c1[N+](=O)[O-]`, for which the logP in data set [1] was 1.27; in data set [4] it was 1.2; in data set [5], 1.3. Moreover, the minimal inhibitory concentration (MIC) in data set [2] and in data set [3] was 4.02 µM (≈ 1 µg/mL) each time. In addition, the midpoint of the response in data set [3], the EC50, lay at 9.11 µM.

For `N#Cc1nc2ccccn2c1[N+](=O)[O-]`, the values for the logP in data set [1], in data set [4] and in data set [5] were 0.691, 0.641 and 0.692, respectively. The MIC in data set [2] was found to be 5.32 µM (≈ 1 µg/mL); in data set [3] it was 2.66 µM (≈ 0.5 µg/mL). Further, the concentration for a half-maximal effect (EC50) in data set [3] was determined as 9.68 µM.

Take `CCOC(=O)c1nc2ccccn2c1[N+](=O)[O-]`: the log partition coefficient (logP) in data set [1] was found to be 0.983; in data set [4], 1.04; in data set [5], 0.963. For the same molecule, the MIC in data set [2] and in data set [3] was 2.13 µM (≈ 0.501 µg/mL) in each case. The same molecule showed a concentration giving a half-maximal response (EC50) in data set [3] of 3.96 µM.

Turning to `Cc1cccc2nc(NC3CCCCC3)c([N+](=O)[O-])n12`, the lipophilicity (logP) came to 1.56 in data set [1], 1.5 in data set [4] and 1.5 in data set [5]. Also, the MIC in data set [2] came to 58.4 µM (≈ 16 µg/mL); in data set [3] it was 29.2 µM (≈ 8.01 µg/mL). This molecule also had an EC50 in data set [3] of 64.3 µM.

`NC(=O)c1nc2ccccn2c1[N+](=O)[O-]`: the lipophilicity (logP) was -0.515 in data set [1], -0.569 in data set [4] and -0.54 in data set [5]. Further, the minimal inhibitory concentration (MIC) in data set [2] and in data set [3] was 9.71 µM (≈ 2 µg/mL) in each case. In addition, the EC50 in data set [3] is 41.3 µM.

With `O=[N+]([O-])c1c(NC2CCCCC2)nc2ccccn12`, the logP in data set [1] was found to be 1.54; in data set [4], 1.5; in data set [5], 1.5. Moreover, the minimum inhibitory concentration (MIC) was determined as 61.5 µM (≈ 16 µg/mL) in data set [2] and 30.8 µM (≈ 8.02 µg/mL) in data set [3]. In data set [3], this molecule gave an EC50 of 61.5 µM.

Take `O=C(O)c1nc2ccccn2c1[N+](=O)[O-]`: the figures for the log partition coefficient (logP) in data set [1], in data set [4] and in data set [5] were -0.041, -0.042 and -0.038, respectively. Further, the MIC in data set [2] and in data set [3] was 19.3 µM (≈ 4 µg/mL) each time. Further, the EC50 in data set [3] was 21.1 µM.
